In patent US20100249161A1, “2- ( 2 -HYDROXYPHENYL) -QUINAZOLIN-4-ONES USEFUL FOR TREATING OBESITY AND DIABETES” (priority 2006, published 2010):

Row | melting point | Structure (SMILES)
1 | 247 to 248 °C | Cc1c(F)cc(C(C)(C)C)c(O)c1-c1nc2ccc(F)cc2c(=O)[nH]1 [Example 3, 2-(-3-tert-Butyl-5-fluoro-2-hydroxy-6-methyl-phenyl)-6-fluoro-3H-quinazolin-4-one]
2 | 224 to 225 °C | Cc1c(Cl)cc(C(C)(C)C)c(O)c1-c1nc2ccc(F)cc2c(=O)[nH]1 [Example 2, 2-(3-tert-Butyl-5-chloro-2-hydroxy-6-methyl-phenyl)-6-fluoro-3H-quinazolin-4-one]
3 | 285 to 286 °C | CCc1c(Cl)cc(C(C)(C)C)c(O)c1-c1nc2ccc(S(=O)(=O)C(F)(F)F)cc2c(=O)[nH]1 [Example 8, 2-(-3-tert-Butyl-5-chloro-2-hydroxy-6-ethyl-phenyl)-6-trifluoromethanesulfonyl-3H-quinazolin-4-one]
4 | 297 to 298 °C | Cc1c(Cl)cc(C(C)(C)C)c(O)c1-c1nc2ccc(S(=O)(=O)C(F)(F)F)cc2c(=O)[nH]1 [Example 4, 2-(3-tert-Butyl-5-chloro-2-hydroxy-6-methyl-phenyl)-6-trifluoromethanesulfonyl-3H-quinazolin-4-one]
5 | 235 to 237 °C | CC(C)(C)c1cc2c(c(-c3nc4ccc(S(=O)(=O)C(F)(F)F)cc4c(=O)[nH]3)c1O)CCO2 [Example 7, 2-(6-tert-Butyl-5-hydroxy-2,3-dihydro-benzofuran-4-yl)-6-trifluoromethanesulfonyl-3H-quinazolin-4-one]
6 | 257 to 258 °C | Cc1c(F)cc(C(C)(C)C)c(O)c1-c1nc2ccc(S(=O)(=O)C(F)(F)F)cc2c(=O)[nH]1 [Example 6, 2-(3-tert-Butyl-5-fluoro-2-hydroxy-6-methyl-phenyl)-6-trifluoromethanesulfonyl-3H-quinazolin-4-one]
